Biological target: T1, Human STAT6 (truncated, aa122-658, with N-terminal His-tag) (Homo sapiens, UniProt P42226)
T1 construct: Human STAT6 (truncated, aa122-658, with N-terminal His-tag, expressed in insect cells); His-tag (N); made in house; host or cells: insect cells
T1 sequence (P42226 122-658): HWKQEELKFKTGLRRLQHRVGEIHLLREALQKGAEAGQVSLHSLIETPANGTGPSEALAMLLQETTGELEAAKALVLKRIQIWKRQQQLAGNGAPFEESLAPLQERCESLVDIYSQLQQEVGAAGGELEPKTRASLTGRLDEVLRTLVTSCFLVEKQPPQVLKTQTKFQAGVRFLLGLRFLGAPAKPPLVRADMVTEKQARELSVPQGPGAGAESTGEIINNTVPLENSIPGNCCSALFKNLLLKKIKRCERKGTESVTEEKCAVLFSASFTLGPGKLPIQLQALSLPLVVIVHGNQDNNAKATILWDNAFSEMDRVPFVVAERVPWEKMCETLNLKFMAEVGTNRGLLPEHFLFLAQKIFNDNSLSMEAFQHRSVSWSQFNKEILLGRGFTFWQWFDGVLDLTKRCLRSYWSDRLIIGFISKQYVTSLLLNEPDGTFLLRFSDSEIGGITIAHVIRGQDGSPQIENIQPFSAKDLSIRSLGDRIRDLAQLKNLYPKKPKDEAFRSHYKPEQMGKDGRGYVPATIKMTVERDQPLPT
Assay: Surface plasmon resonance (SPR) assay, binding to human STAT6
Conditions: Biacore 8K, 25° C, immobilized human STAT6 on CM5 chip, multi-cycle kinetics; geometric mean
Protocol: Surface Plasmon Resonance Assay
Biacore instruments from the 8K-series (Cytiva) were used, and measurements were performed at 25° C. Human STAT6 (truncated, aa122-658, with N-terminal His-tag, expressed in insect cells) was immobilized in the active flow cells on a CM5 chip using amine-coupling (default settings) at 10 μg/ml in 10 mM acetate buffer pH 5.5, at a contact time of 120-420 sec. and a flow rate of 10 μl/min. Reference flow cells were deactivated using blank immobilization. PBS-P+(Cytiva) supplemented with 2% DMSO was used as running buffer, and solvent correction was applied. Compounds were tested by multi-cycle kinetics injections using a contact time of 60 sec., dissociation time of up to 300 sec., and a flow rate of 30 μl/min.
Solvent-corrected, reference-subtracted and blank-corrected data was processed and binding isotherms were fitted according to a single report point from each sensorgram (Standard: Late binding (5 sec. before injection end); alternative: Earlier report point according to binding profile). Data fitting was done both with unfixed Rmax and with Rmax fixed to the theoretical value* assuming 1:1 binding to allow processing of data from both weak and strong binders as well as to evaluate binding stoichiometry.
Positive controls were run at the beginning, during, and at the end of the screen to evaluate surface activity.
*Equation for calculation of the theoretical Rmax(Theoretical Rmax=(MW Analyte/MW Ligand)×immobilization level).

Question: `CN(C)C(=O)c1ccc(C2CCN(Cc3cc4c(-n5ccc(N)c(F)c5=O)ccnc4n3C)CC2)cc1` [Example 1d31, 4-[1-[[4-(4-Amino-3-fluoro-2-oxo-1-pyridyl)-1-methyl-pyrrolo[2,3-b]pyridin-2-yl]methyl]-4-piperidyl]-N,N-dimethyl-benzamide] was tested. Which Kd did it give?
Answer: Its Kd is 22.3 nM.

Question: `CNc1ccn(-c2ccnc3c2cc(CN2CCC(c4ccc(C(=O)N(C)C)cc4F)CC2)n3C)c(=O)c1` [Example 1d34, 3-Fluoro-N,N-dimethyl-4-[1-[[1-methyl-4-[4-(methylamino)-2-oxo-1-pyridyl]pyrrolo[2,3-b]pyridin-2-yl]methyl]-4-piperidyl]benzamide] was tested. Which Kd did it give?
Answer: The Kd was 14.2 nM.

Question: With `CNc1ccn(-c2ccnc3c2cc(CN2CCC(c4ccc(C(=O)N(C)C)cc4OC)CC2)n3C)c(=O)c1` [Example 1d36, 3-Methoxy-N,N-dimethyl-4-[1-[[1-methyl-4-[4-(methylamino)-2-oxo-1-pyridyl]pyrrolo[2,3-b]pyridin-2-yl]methyl]-4-piperidyl]benzamide] as the molecule, how does the Kd read?
Answer: The Kd was 51.6 nM.

Question: For `COC(=O)Nc1ccn(-c2ccnc3c2cc(CN2CCC(c4ccc(C(=O)N(C)C)cc4)CC2)n3C)c(=O)c1` [Example 1d6, Methyl N-[1-[2-[[4-[4-(dimethylcarbamoyl)phenyl]-1-piperidyl]methyl]-1-methyl-pyrrolo[2,3-b]pyridin-4-yl]-2-oxo-4-pyridyl]carbamate], which Kd is on record?
Answer: The Kd was 152 nM.

Question: For `CN(C)C(=O)c1ccc(C2CC[N+]([O-])(Cc3cc4c(-n5ccc6c(c5=O)CCN6)ccnc4n3C)CC2)cc1` (centres unmarked) [Example 1d33, N,N-Dimethyl-4-[1-[[1-methyl-4-(4-oxo-2,3-dihydro-1H-pyrrolo[3,2-c]pyridin-5-yl)pyrrolo[2,3-b]pyridin-2-yl]methyl]-1-oxido-piperidin-1-ium-4-yl]benzamide], which Kd is on record?
Answer: Its Kd is 75.1 nM.

Question: Which Kd does the source give for `CNc1ccn(-c2ccnc3c2cc(CN2CC[C@H](c4ccc(C(=O)N(C)C)cc4)[C@H](F)C2)n3C)c(=O)c1` (single isomer, unassigned) [Example 1f6] here?
Answer: The Kd was 67.5 nM.

Question: How did the Kd turn out when `CN(C)C(=O)c1ccc(C2CCN(Cc3cc4c(-n5ccc(NCc6ccc(Cl)cc6)cc5=O)ccnc4n3C)CC2)cc1` [Example 1d13, 4-[1-[[4-[4-[(4-Chlorophenyl)methylamino]-2-oxo-1-pyridyl]-1-methyl-pyrrolo[2,3-b]pyridin-2-yl]methyl]-4-piperidyl]-N,N-dimethyl-benzamide] was run?
Answer: Its Kd is 49 nM.

Question: With `CN(C)C(=O)c1ccc(C2CCN(Cc3cc4c(-n5ccc(NCc6ccc(F)c(F)c6)cc5=O)ccnc4n3C)CC2)cc1` [Example 1d14, 4-[1-[[4-[4-[(3,4-Difluorophenyl)methylamino]-2-oxo-1-pyridyl]-1-methyl-pyrrolo[2,3-b]pyridin-2-yl]methyl]-4-piperidyl]-N,N-dimethyl-benzamide] as the molecule, how does the Kd read?
Answer: The Kd was 124 nM.

Question: How did the Kd turn out when `CN(C)C(=O)c1ccc(C2CC[N+]([O-])(Cc3cc4c(-n5ccc(N)cc5=O)ccnc4n3C)CC2)cc1` (centres unmarked) [Example 1d32, 4-[1-[[4-(4-Amino-2-oxo-1-pyridyl)-1-methyl-pyrrolo[2,3-b]pyridin-2-yl]methyl]-1-oxido-piperidin-1-ium-4-yl]-N,N-dimethyl-benzamide] was run?
Answer: The Kd was 333 nM.

Question: For `CN(C)C(=O)c1ccc(C2CCN(Cc3cc4c(-n5ncc(N)cc5=O)ccnc4n3C)CC2)cc1` [Example 1ab4, 4-(1-((4-(4-Amino-6-oxopyridazin-1 (6H)-yl)-1-methyl-1H-pyrrolo[2,3-b]pyridin-2-yl)methyl)piperidin-4-yl)-N,N-dimethylbenzamide], which Kd is on record?
Answer: The Kd was 224 nM.

Question: `CNc1ccn(-c2ccnc3c2cc(CN2CC=C(c4ncc(C(=O)N(C)C)cc4C)CC2)n3C)c(=O)c1` [Example 1m14, N,N,3-Trimethyl-1′-((1-methyl-4-(4-(methylamino)-2-oxopyridin-1 (2H)-yl)-1H-pyrrolo[2,3-b]pyridin-2-yl)methyl)-1′, 2′, 3′, 6′-tetrahydro-[2,4′-bipyridine]-5-carboxamide] was tested. Which Kd did it give?
Answer: The Kd was 60.3 nM.

Question: Which Kd does the source give for `CNc1ccn(-c2ccnc3c2cc(CN2CCC(F)(c4ccc(C(=O)N(C)C)cc4)CC2)n3C)c(=O)c1` [Example 1f5, 4-[4-Fluoro-1-[[1-methyl-4-[4-(methylamino)-2-oxo-1-pyridyl]pyrrolo-[2,3-b]pyridin-2-yl]methyl]-4-piperidyl]-N,N-dimethyl-benzamide] here?
Answer: The Kd was 156 nM.

Question: `CNc1ccn(-c2ccnc3c2cc(CN2CC=C(c4ccc(C(=O)N(C)C)cn4)CC2)n3C)c(=O)c1` [Example 1m13, N,N-Dimethyl-1′-((1-methyl-4-(4-(methylamino)-2-oxopyridin-1 (2H)-yl)-1H-pyrrolo[2,3-b]pyridin-2-yl)methyl)-1′, 2′, 3′, 6′-tetrahydro-[2,4′-bipyridine]-5-carboxamide] was tested. Which Kd did it give?
Answer: The Kd was 167 nM.

Question: Which Kd does the source give for `CNc1ccn(-c2ccnc3c2cc(CN2CCN(c4ccc(C(=O)N(C)C)cn4)CC2)n3C)c(=O)c1` [Example 1m7, N,N-Dimethyl-6-(4-((1-methyl-4-(4-(methylamino)-2-oxopyridin-1 (2H)-yl)-1H-pyrrolo[2,3-b]pyridin-2-yl)methyl)piperazin-1-yl)nicotinamide] here?
Answer: The Kd was 735 nM.

Question: `CNc1ccn(-c2ccnc3c2cc(CN2CCN(c4ccc(C(=O)N(C)C)cc4)C[C@H]2C)n3C)c(=O)c1` [Example 1m2, (R)—N,N-Dimethyl-4-(3-methyl-4-((1-methyl-4-(4-(methylamino)-2-oxopyridin-1 (2H)-yl)-1H-pyrrolo[2,3-b]pyridin-2-yl)methyl)piperazin-1-yl)benzamide] was tested. Which Kd did it give?
Answer: Its Kd is 188 nM.

Question: How did the Kd turn out when `CNc1ccn(-c2ccnc3c2cc([C@H](C)N2CCC(c4ccc(C(=O)N(C)C)cc4)CC2)n3C)c(=O)c1` (single isomer, unassigned) [Example 1m72] was run?
Answer: The Kd was 338 nM.

Question: How did the Kd turn out when `CN(C)C(=O)c1ccc(C2CCN(Cc3cc4c(-n5ccc(NCc6ccccc6)cc5=O)ccnc4n3C)CC2)cc1` [Example 1d12, 4-[1-[[4-[4-(Benzylamino)-2-oxo-1-pyridyl]-1-methyl-pyrrolo[2,3-b]pyridin-2-yl]methyl]-4-piperidyl]-N,N-dimethyl-benzamide] was run?
Answer: The Kd was 31 nM.

Question: Which Kd does the source give for `CNc1ccn(-c2ccnc3c2cc(C(C)N2CCC(c4ccc(C(=O)N(C)C)cc4)CC2)n3C)c(=O)c1` (centres unmarked) [Example 1m71, N,N-dimethyl-4-(1-(1-(1-methyl-4-(4-(methylamino)-2-oxopyridin-1 (2H)-yl)-1H-pyrrolo[2,3-b]pyridin-2-yl)ethyl)piperidin-4-yl)benzamide] here?
Answer: Its Kd is 16.4 nM.

Question: How did the Kd turn out when `CN(C)C(=O)c1ccc(C2CCN(Cc3cc4c(-n5ccc(NCC6CC6)cc5=O)ccnc4n3C)CC2)cc1` [Example 1d7, 4-[1-[[4-[4-(cyclo-Propylmethylamino)-2-oxo-1-pyridyl]-1-methyl-pyrrolo[2,3-b]pyridin-2-yl]methyl]-4-piperidyl]-N,N-dimethyl-benzamide] was run?
Answer: The Kd was 99.8 nM.

Question: `CN(C)C(=O)c1ccc(C2CCN(Cc3cc4c(-n5ccc6c(c5=O)CCCN6)ccnc4n3C)CC2)cc1` [Example 1d35, N,N-Dimethyl-4-[1-[[1-methyl-4-(5-oxo-1,2,3,4-tetrahydro-1,6-naphthyridin-6-yl)pyrrolo[2,3-b]pyridin-2-yl]methyl]-4-piperidyl]benzamide] was tested. Which Kd did it give?
Answer: Its Kd is 25.1 nM.

Question: How did the Kd turn out when `CN(C)C(=O)c1ccc(C2CCN(Cc3cc4c(-n5ccc(NC6CC6)cc5=O)ccnc4n3C)CC2)cc1` [Example 1d15, 4-[1-[[4-[4-(cyclo-Propylamino)-2-oxo-1-pyridyl]-1-methyl-pyrrolo[2,3-b]pyridin-2-yl]methyl]-4-piperidyl]-N,N-dimethyl-benzamide] was run?
Answer: The Kd was 112 nM.

Question: How did the Kd turn out when `CNc1cc(=O)n(-c2ccnc3c2cc(CN2CCC(c4ccc(C(=O)N(C)C)cc4)CC2)n3C)cn1` [Example 1ac1, N,N-Dimethyl-4-(1-((1-methyl-4-(4-(methylamino)-6-oxopyrimidin-1 (6H)-yl)-1H-pyrrolo[2,3-b]pyridin-2-yl)methyl)piperidin-4-yl)benzamide] was run?
Answer: The Kd was 4090 nM.

Question: How did the Kd turn out when `CN(C)C(=O)c1ccc(C2CCN(Cc3cc4c(-n5ccc(NC(=O)OC(C)(C)C)cc5=O)ccnc4n3C)CC2)cc1` [Example 1d2, tert-Butyl N-[1-[2-[[4-[4-(dimethylcarbamoyl)phenyl]-1-piperidyl]methyl]-1-methyl-pyrrolo[2,3-b]pyridin-4-yl]-2-oxo-4-pyridyl]carbamate] was run?
Answer: Its Kd is 175 nM.

Test system: Eotaxin-3 (CCL26) release in human whole blood stimulated with IL-4
Assay: Human whole blood eotaxin-3 assay (IL-4 stimulated eotaxin-3 release)
Format: cell-based
Conditions: Homo sapiens, 48 h, human whole blood stimulated with recombinant human IL-4, 48 h; inhibition of eotaxin-3 release; given for test compounds with >80% Emax; geometric mean
In short: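 Eotaxin-3 (CCL26) release was quantified by MSD immunoassay in supernatants of human heparinised whole blood after 48 h at 37° C with IL-4 ([…] final). Compounds, in 4-fold dilutions at 0.5% DMSO, were added 2 h before stimulation.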

Question: With `CN(C)C(=O)c1ccc(C2CCN(Cc3cc4c(-n5ccc(N)c(F)c5=O)ccnc4n3C)CC2)cc1` [Example 1d31, 4-[1-[[4-(4-Amino-3-fluoro-2-oxo-1-pyridyl)-1-methyl-pyrrolo[2,3-b]pyridin-2-yl]methyl]-4-piperidyl]-N,N-dimethyl-benzamide] as the molecule, how does the EC50 read?
Answer: Its EC50 is 100 nM.

Question: For `CNc1ccn(-c2ccnc3c2cc(CN2CCC(c4ccc(C(=O)N(C)C)cc4F)CC2)n3C)c(=O)c1` [Example 1d34, 3-Fluoro-N,N-dimethyl-4-[1-[[1-methyl-4-[4-(methylamino)-2-oxo-1-pyridyl]pyrrolo[2,3-b]pyridin-2-yl]methyl]-4-piperidyl]benzamide], which EC50 is on record?
Answer: Its EC50 is 29.8 nM.

Question: How did the EC50 turn out when `CNc1ccn(-c2ccnc3c2cc(CN2CCC(c4ccc(C(=O)N(C)C)cc4OC)CC2)n3C)c(=O)c1` [Example 1d36, 3-Methoxy-N,N-dimethyl-4-[1-[[1-methyl-4-[4-(methylamino)-2-oxo-1-pyridyl]pyrrolo[2,3-b]pyridin-2-yl]methyl]-4-piperidyl]benzamide] was run?
Answer: Its EC50 is 260 nM.
